From patent US12180187B2, “1-phenyl-5-azinylpyrazolyl-3-oxyalkyl acids and their use for controlling unwanted plant growth” (BAYER AKTIENGESELLSCHAFT, priority 2019, dated 2024)

Tests used:
[1] = tested on: ECHCG; assay: Pre-emergence action against ECHCG, 1280 g/ha; format: in vivo, Echinochloa crus-galli; conditions: visual scoring after about 3 weeks vs untreated controls, 100% = plants have died, 0% = like control plants; for pest or weed control at 1280 g/ha: Echinochloa crus-galli, 504 h
Procedure, shortened: (§1)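 Soil-surface application after sowing, before emergence: WP or EC formulations in water with 0.5% additive, 600 litres per hectare, onto sandy loam pots. Damage rated visually in % relative to untreated plants after roughly 3 weeks in a greenhouse.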

[2] = tested on: POAAN; assay: Pre-emergence action against POAAN, 1280 g/ha; format: in vivo, Poa annua; conditions: visual scoring after about 3 weeks vs untreated controls, 100% = plants have died, 0% = like control plants; for pest or weed control at 1280 g/ha: Poa annua, 504 h
Procedure, shortened: as §1

[3] = tested on: SETVI; assay: Pre-emergence action against SETVI, 1280 g/ha; format: in vivo, Setaria viridis; conditions: visual scoring after about 3 weeks vs untreated controls, 100% = plants have died, 0% = like control plants; for pest or weed control at 1280 g/ha: Setaria viridis, 504 h
Procedure, shortened: as §1

[4] = tested on: AMARE; assay: Pre-emergence action against AMARE, 1280 g/ha; format: in vivo, Amaranthus retroflexus; conditions: scored visually after about 3 weeks vs untreated controls (100% = plants have died); for pest or weed control at 1280 g/ha: Amaranthus retroflexus, 504 h
Procedure, shortened: as §1

[5] = tested on: MATIN; assay: Pre-emergence action against MATIN, 1280 g/ha; format: in vivo, Tripleurospermum inodorum (Matricaria inodora); conditions: scored visually after about 3 weeks vs untreated controls (100% = plants have died); for pest or weed control at 1280 g/ha: Tripleurospermum inodorum, 504 h
Procedure, shortened: as §1

[6] = tested on: STEME; assay: Pre-emergence action against STEME, 1280 g/ha; format: in vivo, Stellaria media; conditions: scored visually after about 3 weeks vs untreated controls (100% = plants have died); for pest or weed control at 1280 g/ha: Stellaria media, 504 h
Procedure, shortened: as §1

[7] = tested on: ALOMY; assay: Pre-emergence action at 320 g/ha against ALOMY; format: in vivo, Alopecurus myosuroides; conditions: scored visually after about 3 weeks vs untreated controls (100% = plants have died); for pest or weed control at 320 g/ha: Alopecurus myosuroides, 504 h
Procedure, shortened: (§2)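 Compounds were sprayed onto soil over sown seeds as emulsions or suspensions with 0.5% additive at a water rate of 600 l/ha. After about 3 weeks in the greenhouse, effect was rated visually as percent (100% = died).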

[8] = tested on: DIGSA; assay: Pre-emergence action at 320 g/ha against DIGSA; format: in vivo, Digitaria sanguinalis; conditions: visual scoring after about 3 weeks vs untreated controls; for pest or weed control at 320 g/ha: Digitaria sanguinalis, 504 h
Procedure, shortened: as §2

[9] = tested on: SETVI; assay: Pre-emergence action at 320 g/ha against SETVI; format: in vivo, Setaria viridis; conditions: visual scoring after about 3 weeks vs untreated controls; for pest or weed control at 320 g/ha: Setaria viridis, 504 h
Procedure, shortened: as §2

[10] = tested on: AMARE; assay: Pre-emergence action at 320 g/ha against AMARE; format: in vivo, Amaranthus retroflexus; conditions: visual scoring after about 3 weeks vs untreated controls; for pest or weed control at 320 g/ha: Amaranthus retroflexus, 504 h
Procedure, shortened: as §2

[11] = tested on: MATIN; assay: Pre-emergence action at 320 g/ha against MATIN; format: in vivo, Tripleurospermum inodorum (Matricaria inodora); conditions: visual scoring after about 3 weeks vs untreated controls; for pest or weed control at 320 g/ha: Tripleurospermum inodorum, 504 h
Procedure, shortened: as §2

[12] = tested on: POLCO; assay: Pre-emergence action at 320 g/ha against POLCO; format: in vivo, Fallopia convolvulus (Polygonum convolvulus); conditions: visual scoring after about 3 weeks vs untreated controls; for pest or weed control at 320 g/ha: Fallopia convolvulus, 504 h
Procedure, shortened: as §2

[13] = tested on: POAAN; assay: Post-emergence action against POAAN, 1.28 kg/ha; format: in vivo, Poa annua; conditions: dosage 1280 g/ha, visual rating about 3 weeks after treatment vs untreated controls; for pest or weed control at 1280 g/ha: Poa annua, 504 h
Procedure, shortened: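 Spray at one-leaf stage with WP/EC + 0.5% additive, 600 L water/ha. Greenhouse, optimum conditions, ~3 wk. Visual % control vs untreated; 0 = no effect, 100 = dead.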

[14] = tested on: POLCO; assay: Post-emergence action at 320 g/ha against POLCO; format: in vivo, Fallopia convolvulus (Polygonum convolvulus); conditions: visual rating about 3 weeks after treatment vs untreated controls; for pest or weed control at 320 g/ha: Fallopia convolvulus, 504 h
Procedure, shortened: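 Sow in sandy loam → greenhouse growth 2–3 wk → spray at one-leaf stage (WP/EC, aqueous, +0.5% additive, 600 l/ha) → hold ~3 wk under optimum conditions → visual rating, 0–100% relative to untreated.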

Structure (SMILES)	pest or weed control at 1280 g/ha [1]	pest or weed control at 1280 g/ha [2]	pest or weed control at 1280 g/ha [3]	pest or weed control at 1280 g/ha [4]	pest or weed control at 1280 g/ha [5]	pest or weed control at 1280 g/ha [6]	pest or weed control at 320 g/ha [7]	pest or weed control at 320 g/ha [8]	pest or weed control at 320 g/ha [9]	pest or weed control at 320 g/ha [10]	pest or weed control at 320 g/ha [11]	pest or weed control at 320 g/ha [12]	pest or weed control at 1280 g/ha [13]	pest or weed control at 320 g/ha [14]	Pre-emergence action against ECHCG [1]	Pre-emergence action against POAAN [2]	Pre-emergence action against SETVI [3]	Pre-emergence action against AMARE [4]	Pre-emergence action against MATIN [5]	Pre-emergence action against STEME [6]	further results
COC(=O)COc1nn(-c2ccccc2F)c(-c2cncnc2)c1Br [VI-004, Methyl {[4-bromo-1-(2-fluorophenyl)-5-(pyrimidin-5-yl)-1H-pyrazol-3-yl]oxy}acetate]	100%	100%	100%	100%	100%	100%	100%	100%	90%	100%	100%	90%	100%	80%							
O=C(O)COc1nn(-c2ccccc2F)c(-c2cncnc2)c1Br [VI-007, {[4-Bromo-1-(2-fluorophenyl)-5-(pyrimidin-5-yl)-1H-pyrazol-3-yl]oxy}acetic Acid]	100%	100%	100%	100%	100%	100%	80%	100%	100%	100%	100%	100%	100%	80%							
COC(=O)[C@@H](C)Oc1nn(-c2ccccc2F)c(-c2cncnc2)c1Br [VI-011, Methyl (2R)-2-{[4-bromo-1-(2-fluorophenyl)-5-(pyrimidin-5-yl)-1H-pyrazol-3-yl]oxy}propanoate]	100%	100%	100%	100%	90%	100%	100%	100%	100%	100%	90%	80%	100%	80%							
COC(=O)COc1nn(-c2ccc(F)cc2)c(-c2ccc(F)nc2)c1Br [VII-002]															100%	100%	100%	100%	90%	100%	Pre-emergence action at 320 g/ha against ALOMY in % [7]: 90%; Pre-emergence action against DIGSA in % [8]: 100%; Pre-emergence action against SETVI in % [9]: 90%; Pre-emergence action against AMARE in % [10]: 100%; Pre-emergence action against MATIN in % [11]: 100%; Pre-emergence action against POLCO in % [12]: 100%; Post-emergence action against POAAN [13]: 100%; Post-emergence action against POLCO in % [14]: 80%
O=C(O)COc1nn(-c2ccccc2F)c(-c2ccc(F)nc2)c1Br [VII-003, {[4-Bromo-1-(2-fluorophenyl)-5-(6-fluoropyridin-3-yl)-1H-pyrazol-3-yl]oxy}acetic acid]	100%	100%	100%	100%	100%	100%	100%	100%	100%	100%	90%	90%	100%	90%							
CCOC(=O)COc1nn(-c2ccccc2F)c(-c2ccc(F)nc2)c1C(F)(F)F [VII-010]															100%	100%	100%	100%	90%	100%	Pre-emergence action at 320 g/ha against ALOMY in % [7]: 100%; Pre-emergence action against DIGSA in % [8]: 100%; Pre-emergence action against SETVI in % [9]: 100%; Pre-emergence action against AMARE in % [10]: 100%; Pre-emergence action against MATIN in % [11]: 100%; Pre-emergence action against POLCO in % [12]: 90%; Post-emergence action against POAAN [13]: 100%; Post-emergence action against POLCO in % [14]: 80%
CCOC(=O)COc1nn(-c2ccccc2F)c(-c2ccc(F)nc2)c1Br [VII-012, Ethyl {[4-bromo-1-(2-fluorophenyl)-5-(6-fluoropyridin-3-yl)-1H-pyrazol-3-yl]oxy}acetate]	100%	100%	100%	100%	100%	90%	100%	100%	100%	100%	90%	90%	100%	90%							
CCOC(=O)COc1nn(-c2ccccc2F)c(-c2cncc(F)c2)c1Br [VII-015]															100%	100%	100%	100%	100%	100%	Pre-emergence action at 320 g/ha against ALOMY in % [7]: 100%; Pre-emergence action against DIGSA in % [8]: 100%; Pre-emergence action against SETVI in % [9]: 100%; Pre-emergence action against AMARE in % [10]: 100%; Pre-emergence action against MATIN in % [11]: 100%; Pre-emergence action against POLCO in % [12]: 100%; Post-emergence action against POAAN [13]: 100%; Post-emergence action against POLCO in % [14]: 100%
